Laboratory results from patent US7427625B2, “Substituted thiatriazaacenaphthylene-6-carbonitrile kinase inhibitors” (Janssen Pharmaceutica, N.V., priority 2006, dated 2008).

Assays:
[1] = biological target: T1, HER-2 (Homo sapiens, UniProt P04626); experiment: HER-2 Kinase Assay; format: biochemical
T1 construct: the nucleotides encoding amino acids 679 to 1255 of HER-2; purchased Proqinase (Freiburg, Germany)
Procedure, shortened: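 GST-HIS6-thrombin fusion of HER-2 residues 679–1255, assayed with biotinylated polyGluTyr, 1 μM ATP plus γ-33P-ATP, Mg2+, Mn2+ and vanadate in Hepes pH 7.5 for 1 h at 30 °C. Incorporation read by streptavidin Flashplate scintillation counting; IC50 values, or % inhibition at 1 μM.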

[2] = system: A375 malignant melanoma; experiment: Cell Proliferation Inhibition Assay (14C-thymidine incorporation), A375; format: cell-based; details: Homo sapiens, A-375
Protocol: (§1) The ability of a test compound to inhibit unregulated cell proliferation was determined by measuring incorporation of ^14C-labelled thymidine into newly synthesized DNA within cell lines derived from carcinomas originating from several tissues. Accordingly, the anti-proliferative effect of a compound on cells with a variety of phenotypes may be determined.
(§2) Carcinoma cell lines include those such as HeLa cervical adenocarcinoma (American Type Culture Collection (ATCC), Virginia, Cat. #CCL-2), A375 malignant melanoma (ATCC CRL-1619), SK-OV-3 ovarian adenocarcinoma (ATCC HTB-77), HCT-116 colon carcinoma (CCL-247), PC-3 prostate adenocarcinoma (ATCC CRL-1435), and MDA-MB-231 (Xenogen Corp.)
(§3) The carcinoma cells were trypsinized and counted. The cells (3000-8000 count) were added to each well of a 96-well CytoStar tissue culture treated scintillating microplate (Amersham #RPNQ0160) in complete medium (100 μL) and the plate was then incubated in complete medium for 24 hrs at 37° C. in an […] atmosphere containing 5% CO2. Test compound (1 μL) in 100% DMSO was added to the plate test-wells with DMSO only added to control-wells. The plate was incubated in complete medium for a second 24 hr period at 37° C. in an atmosphere containing 5% CO2.
(§4) An aliquot of a solution of Methyl ^14C-thymidine ([…]) (NEN #NEC568 or Amersham #CFA532) and complete medium (20 uL to provide 0.2 μCi/well) was then added to each well and the plate was incubated for a third 24 hr period at 37° C. in an atmosphere containing 5% CO2. The plate contents were then discarded, the plate was washed twice with PBS (200 μL) and then PBS (200 μL) was added to each well. The plate was sealed and the degree of methyl ^14C-thymidine incorporation was quantified on a Packard Top Count.

[3] = system: HCT-116 colon carcinoma; experiment: Cell Proliferation Inhibition Assay (14C-thymidine incorporation), HCT116; format: cell-based; details: Homo sapiens
Protocol: as §1, §2, §3, §4

[4] = system: HeLa cervical adenocarcinoma; experiment: Cell Proliferation Inhibition Assay (14C-thymidine incorporation), HeLa; format: cell-based; details: Homo sapiens
Protocol: as §1, §2, §3, §4

T1 sequence (P04626 679-1255): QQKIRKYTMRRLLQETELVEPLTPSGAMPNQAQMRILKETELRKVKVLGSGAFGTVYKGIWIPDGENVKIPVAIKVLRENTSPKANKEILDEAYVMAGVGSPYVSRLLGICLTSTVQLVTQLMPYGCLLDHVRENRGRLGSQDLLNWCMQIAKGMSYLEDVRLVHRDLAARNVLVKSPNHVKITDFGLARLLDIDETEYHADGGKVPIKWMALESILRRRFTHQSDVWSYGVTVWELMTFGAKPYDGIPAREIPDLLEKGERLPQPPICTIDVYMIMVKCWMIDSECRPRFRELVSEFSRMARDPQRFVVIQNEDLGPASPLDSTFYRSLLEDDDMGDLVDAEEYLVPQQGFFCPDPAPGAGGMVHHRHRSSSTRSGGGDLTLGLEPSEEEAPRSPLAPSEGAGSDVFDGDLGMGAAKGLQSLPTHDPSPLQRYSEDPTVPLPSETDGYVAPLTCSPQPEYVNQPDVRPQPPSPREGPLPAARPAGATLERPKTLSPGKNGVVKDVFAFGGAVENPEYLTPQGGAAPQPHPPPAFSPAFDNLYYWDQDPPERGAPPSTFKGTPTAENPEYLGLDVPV

Compound | IC50 [1] | IC50 [2] | IC50 [3] | IC50 [4]
COc1cc(NC(=O)c2sc3ncc(C#N)c4c3c2NC(=O)N4c2ccc(Oc3ccccc3)cc2)ccc1CN1CCOCC1 [Cpd 45, 6-cyano-4-oxo-5-(4-phenoxy-phenyl)-4,5-dihydro-3H-1-thia-3,5,8-triaza-acenaphthylene-2-carboxylic acid (3-methoxy-4-morpholin-4-ylmethyl-phenyl)-amide] | 0.0836 µM | > 10 µM | > 10 µM | > 100 µM
N#Cc1cnc2sc(C(=O)Nc3ccc(CN4CCCCC4)cc3)c3c2c1N(c1ccc(Oc2ccccc2)cc1)C(=O)N3 [Cpd 49, 6-cyano-4-oxo-5-(4-phenoxy-phenyl)-4,5-dihydro-3H-1-thia-3,5,8-triaza-acenaphthylene-2-carboxylic acid (4-piperidin-1-ylmethyl-phenyl)-amide] | 0.836 µM | 1.38 µM | 0.985 µM | 2.19 µM
CC(C)(C)OC(=O)NC1CCN(Cc2ccc(NC(=O)c3sc4ncc(C#N)c5c4c3NC(=O)N5c3c(Cl)ccc4c3OCO4)cc2)CC1 [Cpd 46, [1-(4-{[5-(5-chloro-benzo[1,3]dioxol-4-yl)-6-cyano-4-oxo-4,5-dihydro-3H-1-thia-3,5,8-triaza-acenaphthylene-2-carbonyl]-amino}-benzyl)-piperidin-4-yl]-carbamic acid tert-butyl ester] | 0.134 µM | > 10 µM | > 10 µM | > 10 µM
CN(C)C1CCN(C(=O)c2sc3ncc(C#N)c4c3c2NC(=O)N4c2c(Cl)ccc3c2OCO3)CC1 [Cpd 41, 5-(5-chloro-benzo[1,3]dioxol-4-yl)-2-(4-dimethylamino-piperidine-1-carbonyl)-4-oxo-4,5-dihydro-3H-1-thia-3,5,8-triaza-acenaphthylene-6-carbonitrile] | 13.5 µM | > 100 µM | > 10 µM | > 100 µM
N#Cc1cnc2sc(C(=O)Nc3ccc(CCN4CCCCC4)cc3)c3c2c1N(c1ccc(Oc2ccccc2)cc1)C(=O)N3 [Cpd 48, 6-cyano-4-oxo-5-(4-phenoxy-phenyl)-4,5-dihydro-3H-1-thia-3,5,8-triaza-acenaphthylene-2-carboxylic acid [4-(2-piperidin-1-yl-ethyl)-phenyl]-amide] | > 10 µM | 8.29 µM | 15.8 µM | > 10 µM
CN(C)C1CCN(Cc2ccc(NC(=O)c3sc4ncc(C#N)c5c4c3NC(=O)N5c3c(Cl)ccc4c3OCO4)cc2)CC1 [Cpd 42, 5-(5-chloro-benzo[1,3]dioxol-4-yl)-6-cyano-4-oxo-4,5-dihydro-3H-1-thia-3,5,8-triaza-acenaphthylene-2-carboxylic acid [4-(4-dimethylamino-piperidin-1-ylmethyl)-phenyl]-amide] | > 1 µM | > 100 µM | > 100 µM | > 100 µM
